Measured values from patent publication US20240116985A1, “STAPLED PEPTIDES AND METHODS THEREOF” (priority 2020, published 2024).
Where two headings read alike, the source gives them in different places.

Tests used:
[1] = molecular target: T1, beta-catenin/TCF4 engagement (Homo sapiens, UniProt P35222); test: Nano-BRET target engagement assay (B-cat-Halo & TCF4-Luc in HEK293 cells); type: cell-based; settings: read-out: NanoBRET Abs IC50
T1 construct: expressed in transfected cells; host or cells: HEK293
T1 sequence (P35222 1-781): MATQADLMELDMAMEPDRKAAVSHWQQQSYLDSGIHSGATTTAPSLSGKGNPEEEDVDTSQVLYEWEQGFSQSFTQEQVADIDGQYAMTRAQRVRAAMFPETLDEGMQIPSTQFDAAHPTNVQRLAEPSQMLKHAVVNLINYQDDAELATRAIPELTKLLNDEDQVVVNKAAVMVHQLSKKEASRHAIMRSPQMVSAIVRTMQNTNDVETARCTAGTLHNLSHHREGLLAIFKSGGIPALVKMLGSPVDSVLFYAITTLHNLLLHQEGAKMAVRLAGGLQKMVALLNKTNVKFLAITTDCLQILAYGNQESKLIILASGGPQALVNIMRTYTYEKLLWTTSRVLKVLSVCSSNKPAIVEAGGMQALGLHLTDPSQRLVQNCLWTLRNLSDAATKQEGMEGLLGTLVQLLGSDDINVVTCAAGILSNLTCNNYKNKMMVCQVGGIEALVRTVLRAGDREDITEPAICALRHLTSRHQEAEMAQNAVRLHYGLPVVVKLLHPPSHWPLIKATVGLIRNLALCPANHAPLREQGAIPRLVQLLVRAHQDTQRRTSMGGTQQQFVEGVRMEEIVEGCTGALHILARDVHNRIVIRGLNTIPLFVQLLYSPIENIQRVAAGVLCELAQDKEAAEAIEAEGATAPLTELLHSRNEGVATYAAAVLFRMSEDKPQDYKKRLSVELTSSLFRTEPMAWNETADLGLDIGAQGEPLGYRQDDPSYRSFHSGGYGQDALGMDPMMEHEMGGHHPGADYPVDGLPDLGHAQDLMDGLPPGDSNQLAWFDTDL

[2] = molecular target: T2, full-length beta-Catenin (Uniprot ID P35222) (Homo sapiens, UniProt P35222); test: Fluorescence polarization IC50 (beta-catenin / 5FAM-TCF4 10-53 competition); type: binding; settings: fluorescence polarization; read-out: beta-Catenin FP IC50
T2 construct: 10 nM full-length beta-Catenin (Uniprot ID P35222)
T2 sequence (P35222 1-781): T1 sequence (P35222 1-781)

| IC50 ([1]; absolute IC50) [nM] | IC50 [2] [nM] | IC50 [1] [nM] | Structure (SMILES) |
| --- | --- | --- | --- |
| 4700 | 40 | – | CC(=O)N1CCC[C@]12CC=CCCCC1(CCCC=CCCCOC(=O)N3CC[C@@](C(=O)N[C@@H](Cc4ccccc4C(F)(F)F)C(=O)N[C@H](C(=O)N[C@@H](CCC(N)=O)C(N)=O)[C@H](C)c4ccc5ccccc5c4)(C3)NC(=O)[C@H](CC(C)C)NC(=O)[C@H](Cc3ccccc3)NC(=O)[C@H](C)NC(=O)[C@H](C)NC(=O)[C@H](Cc3cccc(C(=O)O)c3)NC(=O)[C@H](CC(=O)O)NC1=O)NC(=O)[C@H](CC(C)(C)C)NC(=O)[C@H](CC(=O)O)NC2=O (stereo partly drawn) [I-2462, Ac-PL3-Asp-Npg-B5-Asp-3COOHF-Ala-Ala-Phe-Leu-PyrS2-2F3MeF-RbMe2NapA-Gln-NH2] |
| 8000 | 22 | – | CC(=O)N1CCC[C@]12CC=CCCCC1(CCCC=CCCCOC(=O)N3CC[C@@](C(=O)N[C@@H](Cc4ccsc4)C(=O)N[C@@H](Cc4csc5ccccc45)C(=O)N[C@@H](CO)C(N)=O)(C3)NC(=O)[C@H](Cc3ccccc3)NC(=O)[C@H](Cc3ccccc3)NC(=O)[C@H](C)NC(=O)[C@H](C)NC(=O)[C@H](Cc3ccccc3C(=O)O)NC(=O)[C@H](CC(=O)O)NC1=O)NC(=O)[C@H](CC(C)(C)C)NC(=O)[C@H](CC(=O)O)NC2=O (single isomer, unassigned) [I-1664, Ac-PL3-Asp-Npg-B5-Asp-2COOHF-Ala-Ala-Phe-Phe-PyrS2-3Thi-BztA-Ser-NH2] |
| 37700 | 52 | – | CC(=O)N1CCC[C@]12CC=CCCCC1(CCCC=CCCCOC(=O)N3CC[C@@](C(=O)N[C@@H](Cc4ccsc4)C(=O)N[C@@H](Cc4csc5ccccc45)C(=O)N[C@@H](CCC(N)=O)C(N)=O)(C3)NC(=O)[C@H](CCO)NC(=O)[C@H](Cc3ccccc3)NC(=O)[C@H](C)NC(=O)[C@H](C)NC(=O)[C@H](Cc3c[nH]cn3)NC(=O)[C@H](CC(=O)O)NC1=O)NC(=O)[C@H](CC(C)(C)C)NC(=O)[C@H](CC(=O)O)NC2=O (stereo partly drawn) [I-1794, Ac-PL3-Asp-Npg-B5-Asp-His-Ala-Ala-Phe-Hse-PyrS2-3Thi-BztA-Gln-NH2] |
| 3000 | 43 | – | CC(=O)N1CCC[C@]12CC=CCCCC1(CCCC=CCCCOC(=O)N3CC[C@@](C(=O)N[C@@H](Cc4ccsc4)C(=O)N[C@@H](Cc4csc5ccccc45)C(=O)N[C@@H](CC(N)=O)C(=O)N[C@@H](C)C(=O)NC(C)(C)C(=O)N[C@@H](C)C(=O)NC(C)(C)C(=O)N[C@@H](C)C(N)=O)(C3)NC(=O)[C@H](CC(C)C)NC(=O)[C@H](Cc3ccccc3)NC(=O)[C@H](C)NC(=O)[C@H](C)NC(=O)[C@H](Cc3cccc(C(=O)O)c3)NC(=O)[C@H](CC(=O)O)NC1=O)NC(=O)[C@H](CC(C)(C)C)NC(=O)[C@H](CC(=O)O)NC2=O (stereo partly drawn) [I-2272, Ac-PL3-Asp-Npg-B5-Asp-3COOHF-Ala-Ala-Phe-Leu-PyrS2-3Thi-BztA-Asn-Ala-Aib-Ala-Aib-Ala-NH2] |
| > 20000 | 385 | – | CC(=O)N1CCC[C@]12CC=CCCCC1(CCCC=CCCCOC(=O)N3CC[C@@](C(=O)N[C@@H](Cc4ccsc4)C(=O)N[C@@H](Cc4csc5ccccc45)C(=O)N[C@@H](CCC(N)=O)C(N)=O)(C3)NC(=O)[C@H](CC(N)=O)NC(=O)[C@H](Cc3ccccc3)NC(=O)[C@H](C)NC(=O)[C@H](C)NC(=O)[C@H](CC(N)=O)NC(=O)[C@H](CC(N)=O)NC1=O)NC(=O)[C@H](C)NC(=O)[C@H](CC(=O)O)NC2=O (stereo partly drawn) [I-1556, Ac-PL3-Asp-Ala-B5-Asn-Asn-Ala-Ala-Phe-Asn-PyrS2-3Thi-BztA-Gln-NH2] |
| > 20000 | 65 | – | CC(C)COC(=O)N1CCC[C@]12CC=CCCCC1(CCCC=CCCCOC(=O)N3CC[C@@](C(=O)N[C@@H](Cc4ccccc4Cl)C(=O)N[C@@H](Cc4csc5ccccc45)C(=O)N[C@@H](C)C(N)=O)(C3)NC(=O)[C@H](CC(C)C)NC(=O)[C@H](Cc3ccccc3)NC(=O)[C@H](C)NC(=O)[C@H](C)NC(=O)[C@H](Cc3cccc(C(=O)O)c3)NC(=O)[C@H](CC(=O)O)NC1=O)NC(=O)[C@H](CC(C)(C)C)NC(=O)[C@H](CC(=O)O)NC2=O (stereo partly drawn) [I-2305, CO2iBu-PL3-Asp-Npg-B5-Asp-3COOHF-Ala-Ala-Phe-Leu-PyrS2-2C1F-BztA-Ala-NH2] |
| – | 5 | 3700 | CC(=O)N1CCC[C@]12CC=CCCCC1(CCCC=CCCCOC(=O)N3CC[C@@](C(=O)N[C@@H](Cc4ccsc4)C(=O)N[C@@H](Cc4csc5ccccc45)C(=O)N[C@@H](CCC(N)=O)C(N)=O)(C3)NC(=O)[C@H](CC(C)C)NC(=O)[C@H](Cc3ccccc3)NC(=O)[C@H](C)NC(=O)[C@H](C)NC(=O)[C@H](Cn3cc(CC(C)(C)C(=O)O)nn3)NC(=O)[C@H](CC(=O)O)NC1=O)NC(=O)[C@H](CC(C)(C)C)NC(=O)[C@H](CC(=O)O)NC2=O (stereo partly drawn) [I-2083, Ac-PL3-Asp-Npg-B5-Asp-[CH2CMe2CO2H]TriAzDap-Ala-Ala-Phe-Leu-PyrS2-3Thi-BztA-Gln-NH2] |
| 4300 | 47 | – | CC(=O)N1CCC[C@]12CC=CCCCC1(CCCC=CCCCOC(=O)N3CC[C@@](C(=O)N[C@@H](Cc4ccc(F)cc4)C(=O)N[C@@H](Cc4csc5ccccc45)C(=O)N[C@@H](C)C(N)=O)(C3)NC(=O)[C@H](CC(C)C)NC(=O)[C@H](Cc3ccccc3)NC(=O)[C@H](C)NC(=O)[C@H](C)NC(=O)[C@H](Cc3cccc(C(=O)O)c3)NC(=O)[C@H](CC(=O)O)NC1=O)NC(=O)[C@H](CC(C)(C)C)NC(=O)[C@H](CC(=O)O)NC2=O (stereo partly drawn) [I-2263, Ac-PL3-Asp-Npg-B5-Asp-3COOHF-Ala-Ala-Phe-Leu-PyrS2-4FF-BztA-Ala-NH2] |
| – | 28 | 33400 | CC(=O)N1CCC[C@]12CC=CCCCC1(CCCC=CCCCOC(=O)N3CC[C@@](C(=O)N[C@@H](Cc4ccsc4)C(=O)N[C@@H](Cc4csc5ccccc45)C(=O)N[C@H](C(N)=O)C(C)C)(C3)NC(=O)[C@H](CC(C)C)NC(=O)[C@H](Cc3ccccc3)NC(=O)[C@H](C)NC(=O)[C@H](CO)NC(=O)[C@H](Cc3cccc(C(=O)O)c3)NC(=O)[C@H](CC(=O)O)NC1=O)NC(=O)[C@H](CC(C)(C)C)NC(=O)[C@H](CC(=O)O)NC2=O (stereo partly drawn) [I-2190, Ac-PL3-Asp-Npg-B5-Asp-3COOHF-Ser-Ala-Phe-Leu-PyrS2-3Thi-BztA-Val-NH2] |
| 8100 | 49 | – | CC(=O)N1CCC[C@]12CC=CCCCC1(CCCC=CCCCOC(=O)N3CC[C@@](C(=O)N[C@@H](Cc4ccccc4C(F)(F)F)C(=O)N[C@H](C(=O)N[C@@H](CCC(N)=O)C(N)=O)[C@@H](C)c4csc5ccccc45)(C3)NC(=O)[C@H](CC(C)C)NC(=O)[C@H](Cc3ccccc3)NC(=O)[C@H](C)NC(=O)[C@H](C)NC(=O)[C@H](Cc3cccc(C(=O)O)c3)NC(=O)[C@H](CC(=O)O)NC1=O)NC(=O)[C@H](CC(C)(C)C)NC(=O)[C@H](CC(=O)O)NC2=O (stereo partly drawn) [I-2456, Ac-PL3-Asp-Npg-B5-Asp-3COOHF-Ala-Ala-Phe-Leu-PyrS2-2F3MeF-SbMeBztA-Gln-NH2] |

| Structure (SMILES) | IC50 ([1]; absolute IC50) [nM] | IC50 [2] [nM] | IC50 [1] [nM] |
| --- | --- | --- | --- |
| CC(=O)N1CCC[C@]12CC=CCCCC1(CCCC=CCCCOC(=O)N3CC[C@@](C(=O)N[C@@H](Cc4ccsc4)C(=O)N[C@@H](Cc4csc5ccccc45)C(=O)N[C@@H](CCC(=O)N4CCC(N5CCCCC5)CC4)C(N)=O)(C3)NC(=O)[C@H](CC(C)C)NC(=O)[C@H](Cc3ccccc3)NC(=O)[C@H](C)NC(=O)[C@H](C)NC(=O)[C@H](CN(CC(=O)O)CC(F)(F)F)NC(=O)[C@H](CC(=O)O)NC1=O)NC(=O)[C@H](CC(C)(C)C)NC(=O)[C@H](CC(=O)O)NC2=O (stereo partly drawn) [I-1797, Ac-PL3-Asp-Npg-B5-Asp-TfeGA-Ala-Ala-Phe-Leu-PyrS2-3Thi-BztA-[4Pippip]GlnR-NH2] | 22500 | 10 | – |
